Data taken from PubChem BioAssay AID248 (DTP/NCI, 2004).
Values joined by “and” are separate entries in the source; they are usually repeats but may differ in a detail not shown here. Equal values may be shown once. Toxic doses and inconclusive results are not listed. No stated cut-off is given here; in the data, active means T/C of 150% or more; inactive means T/C below 125%.

Tested on: L1210 leukemia ip in BDF1 mice, survival T/C
Test: NCI In Vivo Anticancer Drug Screen. Data for tumor model L1210 Leukemia (intraperitoneal) in B6D2F1 (BDF1) mice
Settings: higher = longer survival
Procedure, shortened: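 Survival endpoint. Drug-treated group vs vehicle group, expressed as T divided by C. Tumor passaged by transplantation.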

[1] = endpoint: mean survival time, dose: 100.0 mg/kg/injection, schedule: Q01DX009 (ip), vehicle: Klucel (hydroxypropylcellulose) (HPC)
[2] = endpoint: mean survival time, dose: 100.0 mg/kg/injection, schedule: Q04DX003 (ip), vehicle: Klucel (hydroxypropylcellulose) (HPC)
[3] = endpoint: mean survival time, dose: 200.0 mg/kg/injection, schedule: Q01DX009 (ip), vehicle: Klucel (hydroxypropylcellulose) (HPC)
[4] = endpoint: mean survival time, dose: 200.0 mg/kg/injection, schedule: Q04DX003 (ip), vehicle: Klucel (hydroxypropylcellulose) (HPC)
[5] = endpoint: mean survival time, dose: 400.0 mg/kg/injection, schedule: Q01DX009 (ip), vehicle: Klucel (hydroxypropylcellulose) (HPC)
[6] = endpoint: mean survival time, dose: 400.0 mg/kg/injection, schedule: Q04DX003 (ip), vehicle: Klucel (hydroxypropylcellulose) (HPC)
[7] = endpoint: mean survival time, dose: 100.0 mg/kg/injection, schedule: Q04DX002 (ip), vehicle: Klucel (hydroxypropylcellulose) (HPC)
[8] = endpoint: mean survival time, dose: 200.0 mg/kg/injection, schedule: Q04DX002 (ip), vehicle: Klucel (hydroxypropylcellulose) (HPC)
[9] = endpoint: mean survival time, dose: 400.0 mg/kg/injection, schedule: Q04DX002 (ip), vehicle: Klucel (hydroxypropylcellulose) (HPC)
[10] = endpoint: mean survival time, dose: 100.0 mg/kg/injection, schedule: Q01DX009 (ip), vehicle: saline with Tween-80
[11] = endpoint: mean survival time, dose: 200.0 mg/kg/injection, schedule: Q01DX009 (ip), vehicle: saline with Tween-80
[12] = endpoint: mean survival time, dose: 100.0 mg/kg/injection, schedule: Q01DX001 (ip), vehicle: saline
[13] = endpoint: mean survival time, dose: 200.0 mg/kg/injection, schedule: Q01DX001 (ip), vehicle: saline
[14] = endpoint: mean survival time, dose: 400.0 mg/kg/injection, schedule: Q01DX001 (ip), vehicle: saline

Measured: T/C

CCC[N+]1(C)CCOCC1
inactive: endpoint: mean survival time, dose: 75.0 mg/kg/injection, schedule: Q01DX001 (ip), vehicle: saline 94 % of control and 89 % of control

Nc1nc(N)c2cc(S(=O)(=O)c3ccccc3)ccc2n1
inactive: endpoint: median survival time, dose: 25.0 mg/kg/injection, schedule: Q01DX009 (ip), vehicle: saline with Tween-80 110 % of control | endpoint: median survival time, dose: 400.0 mg/kg/injection, schedule: Q01DX009 (ip), vehicle: saline with Tween-80 108 % of control | endpoint: median survival time, dose: 800.0 mg/kg/injection, schedule: Q01DX009 (ip), vehicle: saline with Tween-80 117 % of control

OCC1OC(n2cc(Br)c3c2ncn2ccnc32)C(O)C1O (stereo not drawn)
inactive: endpoint: mean survival time, dose: 50.0 mg/kg/injection, schedule: Q01DX005 (ip), vehicle: saline 98 % of control | endpoint: mean survival time, dose: 100.0 mg/kg/injection, schedule: Q01DX005 (ip), vehicle: saline 104 % of control | endpoint: mean survival time, dose: 200.0 mg/kg/injection, schedule: Q01DX005 (ip), vehicle: saline 104 % of control

CC(=O)Oc1cc(O)c2c(c1)OC(C)(C)CC2=O
inactive: [1] 98 % of control | [2] 93 % of control | [3] 98 % of control | [4] 100 % of control | [5] 96 % of control | [6] 97 % of control

Oc1ccc(N=Cc2c(O)ccc3ccccc23)cc1
inactive: endpoint: mean survival time, dose: 200.0 mg/kg/injection, schedule: Q01DX001 (ip), vehicle: other 90 % of control | endpoint: mean survival time, dose: 400.0 mg/kg/injection, schedule: Q01DX001 (ip), vehicle: other 91 % of control

CCOC(=S)Nc1ccccc1
inactive: [7] 103 % of control | [8] 90 % of control | [9] 107 % of control

CCCC(Cl)C(=O)Nc1cccc(O)c1 (stereo not drawn)
inactive: [10] 91 % of control | [11] 91 % of control

CN(C)C(=O)Sc1ccc(S(=O)(=O)F)cc1Cl
inactive: [2] 101 % of control | [4] 106 % of control | [6] 101 % of control

O=C(Nc1cccc2ccccc12)OCCCBr
inactive: [10] 90 % of control | [11] 90 % of control

COc1cc(OC)c(OC)cc1/C=C\c1ccc2ccccc2[n+]1C
inactive: endpoint: mean survival time, dose: 25.0 mg/kg/injection, schedule: Q04DX003 (ip), vehicle: saline with Tween-80 101 % of control | endpoint: mean survival time, dose: 50.0 mg/kg/injection, schedule: Q04DX003 (ip), vehicle: saline with Tween-80 90 % of control

CCOC(=O)C(CC1CC(=O)Nc2ccccc21)C(=O)OCC (stereo not drawn)
inactive: [12] 95 % of control | [13] 97 % of control | [14] 101 % of control

O=C(NC(=S)Nc1cccc(Cl)c1)c1ccccc1
inactive: [1] 106 % of control | [2] 95 % of control | [3] 113 % of control | [4] 92 % of control | [6] 95 % of control

Nc1ccc2c(c1)OCO2
inactive: endpoint: mean survival time, dose: 90.0 mg/kg/injection, schedule: Q04DX003 (sc), vehicle: olive oil, sesame oil, peanut oil 106 % of control | endpoint: mean survival time, dose: 100.0 mg/kg/injection, schedule: Q01DX009 (sc), vehicle: olive oil, sesame oil, peanut oil 107 % of control | endpoint: mean survival time, dose: 100.0 mg/kg/injection, schedule: Q04DX003 (sc), vehicle: olive oil, sesame oil, peanut oil 101 % of control | endpoint: mean survival time, dose: 133.0 mg/kg/injection, schedule: Q04DX003 (sc), vehicle: olive oil, sesame oil, peanut oil 119 % of control | endpoint: mean survival time, dose: 200.0 mg/kg/injection, schedule: Q01DX009 (sc), vehicle: olive oil, sesame oil, peanut oil 112 % of control | endpoint: mean survival time, dose: 400.0 mg/kg/injection, schedule: Q04DX003 (sc), vehicle: olive oil, sesame oil, peanut oil 108 % of control

Cc1cc([N+](=O)[O-])ccc1NC(=O)Nc1cccc(F)c1
inactive: [1] 96 % of control | [7] 90 % of control | [2] 95 % of control | [3] 94 % of control | [8] 88 % of control | [4] 95 % of control | [5] 88 % of control | [9] 88 % of control | [6] 95 % of control

NC(=O)C1CCC(C(N)=O)CC1 (stereo not drawn)
inactive: endpoint: mean survival time, dose: 100.0 mg/kg/injection, schedule: Q01DX001 (ip), vehicle: saline with Tween-80 106 % of control | [10] 100 % of control | endpoint: mean survival time, dose: 100.0 mg/kg/injection, schedule: Q04DX003 (ip), vehicle: saline with Tween-80 100 % of control | endpoint: mean survival time, dose: 200.0 mg/kg/injection, schedule: Q01DX001 (ip), vehicle: saline with Tween-80 98 % of control | [11] 100 % of control | endpoint: mean survival time, dose: 200.0 mg/kg/injection, schedule: Q04DX003 (ip), vehicle: saline with Tween-80 115 % of control | endpoint: mean survival time, dose: 400.0 mg/kg/injection, schedule: Q01DX001 (ip), vehicle: saline with Tween-80 98 % of control | endpoint: mean survival time, dose: 400.0 mg/kg/injection, schedule: Q01DX009 (ip), vehicle: saline with Tween-80 107 % of control | endpoint: mean survival time, dose: 400.0 mg/kg/injection, schedule: Q04DX003 (ip), vehicle: saline with Tween-80 102 % of control

O=C(O)C1C(c2ccccc2)=C(c2ccccc2)C(c2ccccc2)=C(c2ccccc2)C1C(=O)O (stereo not drawn)
inactive: endpoint: mean survival time, dose: 50.0 mg/kg/injection, schedule: Q01DX001 (ip), vehicle: carboxymethylcellulose (CMC) 89 % of control | endpoint: mean survival time, dose: 100.0 mg/kg/injection, schedule: Q01DX001 (ip), vehicle: carboxymethylcellulose (CMC) 92 % of control

CCCCCCCC(=O)CCC
inactive: [1] 108 % of control | [2] 98 % of control | [3] 104 % of control | [4] 89 % of control | [5] 102 % of control | [6] 89 % of control

O=C(NCCCl)NCC1CCCCO1 (stereo not drawn)
inactive: endpoint: mean survival time, dose: 100.0 mg/kg/injection, schedule: Q01DX001 (ip), vehicle: Klucel (hydroxypropylcellulose) (HPC) 100 % of control | [1] 108 % of control | endpoint: mean survival time, dose: 200.0 mg/kg/injection, schedule: Q01DX001 (ip), vehicle: Klucel (hydroxypropylcellulose) (HPC) 98 % of control | [3] 108 % of control | endpoint: mean survival time, dose: 400.0 mg/kg/injection, schedule: Q01DX001 (ip), vehicle: Klucel (hydroxypropylcellulose) (HPC) 86 % of control | [5] 101 % of control

O=C(O)CCC(=O)O
inactive: endpoint: mean survival time, dose: 10.0 mg/kg/injection, schedule: Q01DX009 (ip), vehicle: saline 103 % of control and 101 % of control | endpoint: mean survival time, dose: 20.0 mg/kg/injection, schedule: Q01DX009 (ip), vehicle: saline 100 % of control and 103 % of control | endpoint: mean survival time, dose: 31.25 mg/kg/injection, schedule: Q01DX015 (ip), vehicle: water 96 % of control | endpoint: mean survival time, dose: 40.0 mg/kg/injection, schedule: Q01DX009 (ip), vehicle: saline 97 % of control | endpoint: mean survival time, dose: 62.5 mg/kg/injection, schedule: Q01DX015 (ip), vehicle: water 89 % of control | endpoint: mean survival time, dose: 62.5 mg/kg/injection, schedule: Q01DX Z (ip), vehicle: water 95 % of control and 91 % of control | endpoint: mean survival time, dose: 80.0 mg/kg/injection, schedule: Q01DX009 (ip), vehicle: saline 97 % of control and 99 % of control | [12] 96 % of control | endpoint: mean survival time, dose: 100.0 mg/kg/injection, schedule: Q01DX009 (ip), vehicle: saline 97 % of control and 102 % of control and 92 % of control | endpoint: mean survival time, dose: 125.0 mg/kg/injection, schedule: Q01DX015 (ip), vehicle: water 96 % of control and 87 % of control | endpoint: mean survival time, dose: 125.0 mg/kg/injection, schedule: Q01DX Z (ip), vehicle: water 91 % of control and 88 % of control | endpoint: mean survival time, dose: 160.0 mg/kg/injection, schedule: Q01DX009 (ip), vehicle: saline 93 % of control and 99 % of control | [13] 102 % of control | endpoint: mean survival time, dose: 200.0 mg/kg/injection, schedule: Q01DX009 (ip), vehicle: saline 94 % of control and 97 % of control and 105 % of control | endpoint: mean survival time, dose: 250.0 mg/kg/injection, schedule: Q01DX001 (ip), vehicle: water 100 % of control and 91 % of control | endpoint: mean survival time, dose: 250.0 mg/kg/injection, schedule: Q01DX015 (ip), vehicle: water 93 % of control | endpoint: mean survival time, dose: 250.0 mg/kg/injection, schedule: Q01DX Z (ip), vehicle: water 94 % of control and 100 % of control | [14] 107 % of control | endpoint: mean survival time, dose: 400.0 mg/kg/injection, schedule: Q01DX009 (ip), vehicle: saline 105 % of control | endpoint: mean survival time, dose: 500.0 mg/kg/injection, schedule: Q01DX001 (ip), vehicle: water 100 % of control | endpoint: mean survival time, dose: 500.0 mg/kg/injection, schedule: Q01DX Z (ip), vehicle: water 94 % of control and 101 % of control

C[S+]1CCC(N)C(=O)C1 (stereo not drawn)
inactive: endpoint: mean survival time, dose: 12.5 mg/kg/injection, schedule: Q04DX002 (ip), vehicle: saline 103 % of control | endpoint: mean survival time, dose: 25.0 mg/kg/injection, schedule: Q04DX002 (ip), vehicle: saline 120 % of control | endpoint: mean survival time, dose: 50.0 mg/kg/injection, schedule: Q04DX002 (ip), vehicle: saline 113 % of control and 91 % of control | endpoint: mean survival time, dose: 100.0 mg/kg/injection, schedule: Q04DX002 (ip), vehicle: saline 103 % of control

CCOC(=O)CNc1cccc(C(F)(F)F)c1
inactive: endpoint: mean survival time, dose: 100.0 mg/kg/injection, schedule: Q01DX009 (ip), vehicle: carboxymethylcellulose (CMC) 98 % of control | [7] 100 % of control and 105 % of control | endpoint: mean survival time, dose: 200.0 mg/kg/injection, schedule: Q01DX009 (ip), vehicle: carboxymethylcellulose (CMC) 93 % of control | [8] 109 % of control and 114 % of control | [9] 98 % of control
